Results published in US7645903B2, “Use of urea variants as affinity ligands” (GE Healthcare Bio-Sciences AB, priority 2002, dated 2010).
Structures can show the parent of a compound that is named as a salt.

System: human Fab of κ-type
Experiment: STD-NMR binding test (saturation transfer difference NMR screening)
Set-up: key to NMR signal, conc 1 / NMR signal, conc 2 / NMR signal, conc 3 / NMR signal, Conc 1 (directed library) / NMR signal, Conc 2 (directed library): 0 no; 1 weak; 2 strong signal
Settings: for NMR signal, Conc 2 (directed library): 100 nM antibody; for NMR signal, Conc 1 (directed library): 500 nM antibody; for NMR signal, conc 1: 500 nM protein; for NMR signal, conc 1 / NMR signal, conc 2: 0.5 mM ligand; for NMR signal, conc 2: 100 nM protein
Experimental: All NMR experiments were performed at 298 K on a Bruker Avance 500 MHz spectrometer. The 1D saturation transfer difference method (STD-NMR) was used as screening assay (Mayer M. and Meyer B. 1999. Characterisation of Ligand Binding by Saturation Transfer Difference NMR Spectroscopy. Angew. Chem., Int. Ed. 38: 1784-1788). […] The two spectra are recorded in the same experiment in an interleaved fashion. […] It has been shown that the method is capable of detecting ligands with dissociation constants between 10^−3 and 10^−8 M (Mayer M. and Meyer B. 1999. Characterisation of Ligand Binding by Saturation Transfer Difference NMR Spectroscopy. Angew. Chem, Int. Ed. 38: 1784-1788). The strength of the STD-NMR signal depends upon several factors including protein size, offset and duration of the on-resonance irradiation, the dissociation rate constant and the excess of ligand. The STD-NMR method is advantageous in that the detection limits can be tuned for binding by varying the protein concentration while keeping the ligand concentration constant. Under such conditions, at higher protein concentrations the weak to medium binders are detected, whereas at lower protein concentrations only medium binders are detected. For instance, it has been shown before for another enzyme system that both μM and mM binders were detected at a protein concentration of 35 μM whereas only μM binders were detected at protein concentrations of 1 μM and 100 nM (Peng J. W., Lepre C. A., Fejzo J., Abdul-Manan N. and Moore J. M. 2001, Nuclear Magnetic Resonance-Based Approaches for Lead Generation in Drug Discovery, Methods in Enzymology. 338: 202-230). It should be noted that the signal intensity at one specific protein concentration should not be taken as a direct measure of the binding strength. […] On the other hand the signal of the μM binder became even stronger than before (Peng J. W., Lepre C. A., Fejzo J., Abdul-Manan N. and Moore J. M. 2001, Nuclear Magnetic Resonance-Based Approaches for Lead Generation in Drug Discovery, Methods in Enzymology. 338: 202-230).
Here, three different antibody concentrations were used, namely, 0.5 μM, 100 nM and 20 nM. The antibody used was a human Fab of κ-type. In all cases ligands were tested one-by-one. On-resonance irradiation was set at 0 ppm and off-resonance irradiation was set at 40 ppm. Irradiation time in each scan was 2 s and 16K data points were collected with 1024 scans in total. Compounds for testing were dissolved in DMSOd6 to a concentration of 50 mM and 5 μL of the concentrated ligand solution was added to 495 μL buffer solution. The samples thus consisted of 0.5 mM ligand, 20 mM phosphate buffer, 100 mM NaCl and […] in D2O at pD 7.5, uncorrected reading on pH-meter. Compounds were initially tested for binding with 0.5 μM antibody. Interesting ligands were further tested with protein concentrations of 100 or 20 nM. A one-dimensional ^1H-spectrum was acquired first as reference spectrum and subsequently a saturation transfer difference (STD) spectrum was acquired. Each analysis took 60 minutes on the spectrometer.

Row | Structure (SMILES) | NMR signal, conc 1 | NMR signal, conc 2 | further results
1 | COC(=O)[C@H]1CCCN1C(=O)N(C)c1ccc(Cl)c(Cl)c1 (single isomer, unassigned) [AB_0003290, 1-[(3,4-Dichloro-phenyl)-methyl-carbamoyl]-pyrrolidine-2-carboxylic acid methyl ester (R-isomer)] | – | – | NMR signal, Conc 2 (directed library): 2; NMR signal, Conc 1 (directed library): 2
2 | O=C(c1ccccn1)C(O)c1ccccn1 (stereo not drawn) [AB_0000510, alpha-pyridoin] | 0 | – | –
3 | CC1=NN(c2cccc(Cl)c2)C(=O)C1 [AB_0000530, 1-(3-chlorophenyl)-3-methyl-2-pyrazolin-5-one] | 0 | – | –
4 | O=C1C(=O)N(c2ccccc2)C(=O)N1c1ccccc1 [AB_0000540, 1,3-diphenylparabanic acid] | 0 | – | –
5 | Cc1cc(C)nc(SCC(=O)Nc2ccc(F)c(Cl)c2)n1 [AB_0000580, n1-(3-chloro-4-fluorophenyl)-2-[(4,6-dimethylpyrimidin-2-yl)thio]acetamide] | 1 | 0 | –
6 | O=C1c2ccncc2C(=O)N1c1ccc(Cl)cc1 [AB_0000610, 2-(4-chlorophenyl)-2,3-dihydro-1h-pyrrolo[3,4-c]pyridine-1,3-dione] | 0 | – | –
7 | O=C(Cc1ncon1)Nc1ccc(F)c(F)c1F [AB_0000630, n1-(2,3,4-trifluorophenyl)-2-(1,2,4-oxadiazol-3-yl)acetamide] | 0 | – | –
8 | COC(=O)NC(=O)c1nc(-c2ccccc2)c(C)o1 [AB_0000670, methyl n-[(5-methyl-4-phenyl-1,3-oxazol-2-yl)carbonyl]carbamate] | 2 | 0 | –
9 | O=C(Cc1ncon1)Nc1ccc(F)cc1F [AB_0000690, n1-(2,4-difluorophenyl)-2-(1,2,4-oxadiazol-3-yl)acetamide] | 0 | – | –
10 | c1ccc(-c2nnc(-c3ccccn3)nn2)nc1 [AB_0000700, 3,6-di-2-pyridyl-1,2,4,5-tetrazine] | 0 | – | –
11 | O=C1C(=Cc2ccccc2)C(=O)c2ccccc21 [AB_0000730, 2-benzylidene-1,3-indandione] | 0 | – | –
12 | O=C(Nc1ccc(F)cc1)Oc1noc(-c2ccccc2)n1 [AB_0000740, 5-phenyl-1,2,4-oxadiazol-3-yl n-(4-fluorophenyl)carbamate] | 0 | – | –
13 | CC1(C)CC(=O)c2sc(NC(=O)c3cccnc3)nc2C1 [AB_0000750, n-(5,5-dimethyl-7-oxo-4,5,6,7-tetrahydro-benzothiazol-2-yl)-nicotinamide] | 0 | – | –
14 | Sc1nnc(-c2csc(-c3ccccc3)n2)o1 [AB_0000760, 5-(2-phenyl-1,3-thiazol-4-yl)-1,3,4-oxadiazol-2-ylhydrosulfide] | 1 | 0 | –
15 | O=C(CC1OC(=O)c2ccccc21)c1ccccn1 (centres unmarked) [AB_0000790, 3-[2-oxo-2-(2-pyridyl)ethyl]-1,3-dihydroisobenzofuran-1-one] | 0 | – | –
16 | O=C1SC(Br)C(=O)N1c1ccccc1 (centres unmarked) [AB_0000880, 5-bromo-3-phenyl-thiazolidine-2,4-dione] | 0 | – | –
17 | O=C(c1ccc2ccccc2c1)n1ccnc1 [AB_0000900, 1-(2-naphthoyl)imidazole] | 0 | – | –
18 | O=C1C=C(Cl)C(=O)N1c1ccccc1 [AB_0000930, 3-chloro-1-phenyl-pyrrole-2,5-dione] | 0 | – | –
19 | CCCCc1c(O)nc2ccccn2c1=O [AB_0000990, 3-butyl-2-hydroxy-4h-pyrido[1,2-a]pyrimidin-4-one] | 0 | – | –

Row | Structure (SMILES) | NMR signal, conc 1 | NMR signal, conc 2 | further results
20 | OC(CNCc1ccccc1)C(F)(F)F (centres unmarked) [AB_0001000, 3-(benzylamino)-1,1,1-trifluoro-2-propanol] | 1 | 0 | –
21 | Fc1cc(F)cc(Cc2nc(-c3cccs3)no2)c1 [AB_0001020, 5-(3,5-difluorobenzyl)-3-(2-thienyl)-1,2,4-oxadiazole] | 1 | 0 | –
22 | O=Cc1cccc(C(F)(F)F)c1Cl [AB_0001030, 2-chloro-3-(trifluoromethyl)benzaldehyde] | 1 | 0 | –
23 | N=c1sccn1CC(=O)c1ccc2ccccc2c1 [AB_0001060, 2-(2-imino-thiazol-3-yl)-1-naphthalen-2-yl-ethanone] | 2 | 0 | –
24 | CCn1ccnc1CC1COc2ccccc2O1 (centres unmarked) [AB_0001070, imiloxan hydrochloride] | 1 | 1 | –
25 | CC1CN=C(SCc2ccccc2)N1.Cl (centres unmarked) [AB_0001080, 2-(benzylthio)-5-methyl-4,5-dihydro-1h-imidazol-3-ium chloride] | 0 | – | –
26 | O=C1C=CC(=O)N1c1cccc(Cl)c1 [AB_0001090, n-(3-chlorophenyl)-maleimide] | 1 | 0 | –
27 | CCOC(=O)c1c[nH]c2ccccc2c1=O [AB_0001100, ethyl 4-oxo-1,4-dihydroquinoline-3-carboxylate] | 0 | – | –
28 | CSCCNC(=O)c1nc2ccccc2c(=O)n1N [AB_0001130, 3-amino-n-[2-(methylthio)ethyl]-4-oxo-3,4-dihydroquinazoline-2-carboxamide] | 0 | – | –
29 | Clc1ccc(COn2ccnc2)cc1Cl [AB_0001150, 1-[(3,4-dichlorobenzyl)oxy]-1h-imidazole] | 2 | 0 | –
30 | OC(CNCc1ccc(Cl)cc1Cl)C(F)(F)F (centres unmarked) [AB_0001170, 3-[(2,4-dichlorobenzyl)amino]-1,1,1-trifluoro-2-propanol] | 0 | – | –
31 | O=C(O)c1ccnn(-c2ccccc2)c1=O [AB_0001180, 3-oxo-2-phenyl-2,3-dihydro-4-pyridazinecarboxylic acid] | 0 | – | –
32 | c1ccc(CCn2cc(-c3ccncc3)cn2)cc1 [AB_0001190, 4-[1-(2-phenylethyl)-(1h)-pyrazol-4-yl]pyridine] | 2 | 0 | –
33 | COC(=O)c1ccc2ccccc2c1O [AB_0001200, methyl 1-hydroxy-2-naphthoate] | 1 | 0 | –
34 | FC(F)(F)c1cccc(-n2ccnc2)c1 [AB_0001220, 1-(3-trifluoromethylphenyl)imidazole] | 2 | 0 | –
35 | O=C(COc1ccc2ccccc2c1)ON1C(=O)CCC1=O [AB_0001230, (2-naphthoxy)acetic acid, n-hydroxysuccinimide ester] | 0 | – | –
36 | COC(=O)CCCN(C)C(=O)N(C)c1ccccc1 [AB_0001251, 4-(1,3-Dimethyl-3-phenyl-ureido)-butyric acid methyl ester] | – | – | NMR signal, Conc 2 (directed library): 0; NMR signal, Conc 1 (directed library): 0; interaction with the antibody in NMR screening of directed library (two higher antibody concentrations): negative result
37 | COC(=O)CCCN(C)C(=O)N(C)c1ccc(OC)c(F)c1 [AB_0001252, 4-[3-(3-Fluoro-4-methoxy-phenyl)-1,3-dimethyl-ureido]-butyric acid methyl ester] | – | – | NMR signal, Conc 2 (directed library): 1; NMR signal, Conc 1 (directed library): 1
38 | COC(=O)CCCN(C)C(=O)N(C)c1ccc(OC)c(Cl)c1 [AB_0001253, 4-[3-(3-Chloro-4-methoxy-phenyl)-1,3-dimethyl-ureido]-butyric acid methyl ester] | – | – | NMR signal, Conc 2 (directed library): 1; NMR signal, Conc 1 (directed library): 2
